Tests used:
Type in all cases: cell-based, human
hPSCs = assay: OCT4 and BRY immunofluorescence in hPSCs after CHIR99021; settings: increasing doses of CHIR99021 in mTeSR1 for 48 hours; kinesin-2 knockout hPSCs, no significant difference from controls
Procedure: Cells and organoid cultures were fixed with 4% paraformaldehyde (Electron Microscopy Sciences) for 15 minutes, washed 3 times with Phosphate buffered saline (PBS, Thermo Fisher), blocked for 1 hour with blocking buffer (5% normal donkey serum and 0.3% Triton X-100 in PBS), and incubated overnight with primary antibodies including mouse acetylated α-tubulin (Sigma T7451), rabbit acetylated α-tubulin (Cell Signaling, D20G3), α-fetoprotein (AFP) (R&D MAB1368), α-smooth muscle actin (SMA) (R&D MAB1420), ZO-1 (Invitrogen, 339100), E-Cadherin (Abcam, ab11512), Nephrin (R&D, AF4269), p-Histone H3 (Santa Cruz sc-8656-R), OCT4 (Abcam ab19857), brachyury (BRY) (Santa Cruz sc-17745), SOX2 (Abcam ab97959), and 3-Tubulin III (Tuj1) (Sigma-Aldrich T2200-200UL). After washing with PBS, secondary donkey antibodies conjugated with Alexa-Fluor 488, 555, or 647 (1:500, Thermo Fisher) were applied, or Fluorescein Lotus Lectin (Vector Labs, FL-1321), with DAPI to stain the nuclei. […]
(§1) Fluorescence intensity analysis of BRY and OCT4 was performed on images processed and imaged identically, individual cells were identified automatically using Cell Profiler 2.0 and the average intensity per cell was plotted in BBP. […] Immunoblot band intensity levels were quantified using the ImageJ magic wand tool, normalized to the loading control, and pooled from multiple experiments to determine average and S.E.M. values. […]

[1] = system: hedgehog signaling (GLI3, GLI1) in control hPSC kidney organoid cultures; assay: GLI3 and GLI1 immunoblots of kidney organoid cultures from control hPSCs treated with hedgehog modulators
Procedure: (§2) KIF3A^−/−, KIF3B^−/− and isogenic control hPSCs were lysed with RIPA buffer containing protease and phosphatase inhibitors (Roche). Protein concentration was determined using a Pierce BCA protein assay kit. 50 μg of total protein was separated in a 4-20% acrylamide gel (Bio-Rad) and analyzed with silver stain (Bio-Rad) or transferred onto a PDVF membrane using standard procedures. 5% milk was used as a blocking agent prior to and during immunoblotting. Blots were probed with antibodies raised against PC1 (Santa Cruz sc-130554), PC2 (Santa Cruz sc-25749), KIF3A (Abcam ab11259), KIF3B (Cell Signaling 13817), […] (Cell Signaling 4970), FLOT1 (Cell Signaling 18634), IFT88 (Proteintech 13967-1-AP), ARL13B (Proteintech 17711-1-AP), GLI1 (Cell Signaling 3538), GLI2 (Abcam ab26056), PTCH1 (Cell Signaling 8358), ALIX (Cell Signaling 2171), ANXA5 (Cell Signaling 8555), GM130 (Cell Signaling 12480), HPS70 (Cell Signaling 4876), CD9 (Cell Signaling 13174), ICAM-1 (Cell Signaling 4915), and EpCAM (Cell Signaling 2626).
(§3) Kidney organoids were generated as previously described (Freedman, B. S. et al. Modelling kidney disease with CRISPR-mutant kidney organoids derived from human pluripotent epiblast spheroids. Nat Commun 6, 8715 (2015)). Briefly, dissociated hPSCs were plated into 96 or 24 well plates coated with 1% Geltrex (Thermo Fisher) in mTeSR1 (STEMCELL Technologies) supplemented with 10 μM Rho-kinase inhibitor Y27632 (Tocris Bioscience). The next morning, mTeSR1 containing 1.5% Geltrex was added to the wells, and the media was changed again to mTeSR1 24 hours later. 72 hours after plating, cells were treated with 12 μM CHIR99021 (Stemgent) in RPMI medium containing 1× Glutamax (Thermo Fisher) with 2 ng/ml recombinant BMP-4 (Peprotech) to induce kidney differentiation. 36 hours after treatment, the medium was changed to RPMI supplemented with B27 (RB medium, Thermo Fisher). RB medium changes were performed every three days. When indicated, organoid cultures were supplemented with 1 μM SAG or 10 μM Cyclopamine (both from Cayman Chemical) starting with the first addition of RB on day 1.5 (36 hours after CHIR99021 treatment on day 0) and maintained thereafter in RB media containing these compounds at all subsequent time points.
Fluorescence intensity analysis of BRY and OCT4 was performed on images processed and imaged identically, individual cells were identified automatically using Cell Profiler 2.0 and the average intensity per cell was plotted in BBP. Line scan analyses were conducted utilizing the Intensity Profile function in NIS Elements. A single line scan of equal length was performed on each structure, and subsequently these were averaged to generate the graphs, plotting pixel intensity values for each channel on the y-axis against the points along the line on the x-axis. Immunoblot band intensity levels were quantified using the ImageJ magic wand tool, normalized to the loading control, and pooled from multiple experiments to determine average and S.E.M. values. A two-tailed t-test for two samples with unequal variance was applied to determine significance. In cases where a treatment condition was applied, a paired t-test was performed. Statistical analyses were performed in GraphPad Prism 9 software.

[2] = system: hedgehog signaling (GLI3, GLI1) in KIF3A−/− and KIF3B−/− mutants; assay: GLI3 and GLI1 immunoblots of KIF3A−/− and KIF3B−/− kidney organoid cultures treated with hedgehog modulators; settings: for GLI3/GLI1 response to prolonged treatment: day 18, 1 μM SAG or 10 μM cyclopamine starting on day 1.5
Procedure: as §2
Kidney organoids were generated as previously described (Freedman, B. S. et al. Modelling kidney disease with CRISPR-mutant kidney organoids derived from human pluripotent epiblast spheroids. Nat Commun 6, 8715 (2015)). Briefly, dissociated hPSCs were plated into 96 or 24 well plates coated with 1% Geltrex (Thermo Fisher) in mTeSR1 (STEMCELL Technologies) supplemented with 10 μM Rho-kinase inhibitor Y27632 (Tocris Bioscience). The next morning, mTeSR1 containing 1.5% Geltrex was added to the wells, and the media was changed again to mTeSR1 24 hours later. […]
as §1

[3] = system: kidney organoid cultures derived from control hPSCs; assay: Organoid lineage differentiation in control cultures (immunofluorescence, 96-wells); settings: 1 μM SAG or 10 μM cyclopamine from day 1.5 to day 18
Procedure: as §3
Cells and organoid cultures were fixed with 4% paraformaldehyde (Electron Microscopy Sciences) for 15 minutes, washed 3 times with Phosphate buffered saline (PBS, Thermo Fisher), blocked for 1 hour with blocking buffer (5% normal donkey serum and 0.3% Triton X-100 in PBS), and incubated overnight with primary antibodies including mouse acetylated α-tubulin (Sigma T7451), rabbit acetylated α-tubulin (Cell Signaling, D20G3), α-fetoprotein (AFP) (R&D MAB1368), α-smooth muscle actin (SMA) (R&D MAB1420), ZO-1 (Invitrogen, 339100), E-Cadherin (Abcam, ab11512), Nephrin (R&D, AF4269), p-Histone H3 (Santa Cruz sc-8656-R), OCT4 (Abcam ab19857), brachyury (BRY) (Santa Cruz sc-17745), SOX2 (Abcam ab97959), and 3-Tubulin III (Tuj1) (Sigma-Aldrich T2200-200UL). After washing with PBS, secondary donkey antibodies conjugated with Alexa-Fluor 488, 555, or 647 (1:500, Thermo Fisher) were applied, or Fluorescein Lotus Lectin (Vector Labs, FL-1321), with DAPI to stain the nuclei. Stained cells were imaged in PBS using a Nikon AIR confocal microscope or Eclipse TE wide-field microscope.

GLI1 in EV of hPSCs = assay: GLI1 immunoblot of extracellular vesicles (EV) from hPSCs ±SAG; settings: SAG stimulation
Procedure: KIF3A^−/−, KIF3B^−/− and isogenic control hPSCs were lysed with RIPA buffer containing protease and phosphatase inhibitors (Roche). Protein concentration was determined using a Pierce BCA protein assay kit. 50 μg of total protein was separated in a 4-20% acrylamide gel (Bio-Rad) and analyzed with silver stain (Bio-Rad) or transferred onto a PDVF membrane using standard procedures. 5% milk was used as a blocking agent prior to and during immunoblotting. […]
as §1

[4] = 1 μM SAG starting on day 1.5, by day 4 of differentiation
[5] = day 18, prolonged 16.5 day treatment, 1 μM SAG

Cc1c[nH]c(-c2cnc(NCCNc3ccc(C#N)cn3)nc2-c2ccc(Cl)cc2Cl)n1 [CHIR99021]
brachyury (BRY) immunofluorescence (hPSCs): dose-dependent upregulation

CNC1CCC(N(Cc2cccc(-c3ccncc3)c2)C(=O)c2sc3ccccc3c2Cl)CC1 (stereo not shown) [SAG]
GLI1 levels [1, 4]: increased levels | GLI3R levels [1, 4]: reduced levels | GLI1 [1, 5]: upregulated | GLI3 [1, 5]: strongly downregulated | effect on GLI3 or GLI1 levels ([2]; 1 μM SAG starting on day 1.5): no detectable effect | GLI3/GLI1 response to prolonged treatment [2]: failed to respond | Kidney organoid differentiation (nephron organoids per well) [3]: impaired | Neuron differentiation (TUJ1+) [3]: significantly suppressed | SOX2+ neuronal progenitor cells [3]: increased | GLI1 in EV (GLI1 in EV of hPSCs; control or PKD1−/− hPSCs): increased after SAG stimulation | GLI1 in EV (GLI1 in EV of hPSCs; kinesin-2 knockouts): undetectable

CC1=C2C[C@H]3[C@@H](CC=C4C[C@@H](O)CC[C@@]43C)[C@@H]2CC[C@]12O[C@@H]1C[C@H](C)CN[C@H]1[C@H]2C [cyclopamine]
GLI3R ([1]; day 18, 10 μM cyclopamine starting on day 1.5): modestly increased | GLI3/GLI1 response to prolonged treatment [2]: failed to respond | Neuron differentiation (TUJ1+) [3]: did not reach statistical significance | SOX2+ neuronal progenitor cells [3]: strong inhibitory effect

From US20250027932A1, “DIFFERENTIATION OF HUMAN TISSUES WITHOUT CILIA FROM PLURIPOTENT STEM CELLS” (University of Washington, priority 2021, published 2025)
